Earlier results, collected in patent US6635803B1, “Method to improve drought tolerance in plants” (Regents of the University of California, priority 1999, dated 2003).

Assays:
[1] = tested on: K+in channels in guard cells; settings: cytosolic second messengers
K+in channel = settings: 10 mM

SMILES	effect on K+in channels [1]	block of K+in channel currents (K+in channel) [%]	final stomatal apertures (stomata)
Nc1nc2c(ncn2[C@@H]2O[C@H](COP(=O)(O)OP(=O)(O)OP(O)(O)=S)[C@@H](O)[C@H]2O)c(=O)[nH]1 [GTPγS]	inhibit	–	–
[Ba+2] [Ba^2+]	–	90	does not affect
[Ca+2] [Ca^2+]	inhibit	–	–
O=P(O)(O)O[C@@H]1[C@H](O)[C@H](O)[C@@H](OP(=O)(O)O)[C@H](OP(=O)(O)O)[C@H]1O [inositol-1,4,5-triphosphate]	inhibit	–	–
